PubChem BioAssay AID1259407 (Chemical Carcinogenesis Research Information System (CCRIS), 2018)
Active and inactive are the calls of the source. No rule for the calls is given here.

System: CCRIS mutagenicity, Ames/micronucleus/aberration tests
Assay: CCRIS mutagenicity studies
[1] = Test System: AMES SALMONELLA TYPHIMURIUM, Strain/Indicator: TA98, Metabolic Activation: NONE, Method: STANDARD PLATE
[2] = Test System: AMES SALMONELLA TYPHIMURIUM, Strain/Indicator: TA98, Metabolic Activation: RAT, LIVER, S-9, Method: STANDARD PLATE
[3] = Test System: AMES SALMONELLA TYPHIMURIUM, Strain/Indicator: TA100, Metabolic Activation: NONE, Method: STANDARD PLATE
[4] = Test System: AMES SALMONELLA TYPHIMURIUM, Strain/Indicator: TA100, Metabolic Activation: RAT, LIVER, S-9, Method: STANDARD PLATE
[5] = Test System: AMES SALMONELLA TYPHIMURIUM, Strain/Indicator: TA100, Metabolic Activation: RAT, LIVER, S-9, AROCLOR 1254, Method: STANDARD PLATE
[6] = Test System: AMES SALMONELLA TYPHIMURIUM, Strain/Indicator: TA1535, Metabolic Activation: NONE, Method: STANDARD PLATE
[7] = Test System: AMES SALMONELLA TYPHIMURIUM, Strain/Indicator: TA1537, Metabolic Activation: NONE, Method: STANDARD PLATE
[8] = Test System: AMES SALMONELLA TYPHIMURIUM, Strain/Indicator: TA1538, Metabolic Activation: NONE, Method: STANDARD PLATE
[9] = Test System: MOUSE LYMPHOMA, Strain/Indicator: L5178Y (TK+/TK-), Metabolic Activation: NONE, Method: SUSPENSION/PLATE
[10] = Test System: MOUSE LYMPHOMA, Strain/Indicator: L5178Y (TK+/TK-), Metabolic Activation: RAT, LIVER, S-9, AROCLOR 1254, Method: SUSPENSION/PLATE

In the case of `CC(C)OS(C)(=O)=O`, the mutagenic call (End Point: IN VITRO MICRONUCLEUS, Test System: MOUSE LYMPHOMA L5178Y CELLS, Metabolic Activation: NONE) is reported as “active; positive”, the mutagenic call (End Point: IN VITRO MICRONUCLEUS, Test System: MOUSE LYMPHOMA L5178Y CELLS, Metabolic Activation: RAT, LIVER, S-9) is reported as “active; positive” and the mutagenic call [1] is reported as “active; positive”. The mutagenic call [2] was “inactive; negative”, the mutagenic call (Test System: AMES SALMONELLA TYPHIMURIUM, Strain/Indicator: TA100, Metabolic Activation: NONE, Method: PREINCUBATION) was “active; positive” and the mutagenic call [3] was “active; positive”. The mutagenic call [4] was “active; positive”, the mutagenic call (Test System: AMES SALMONELLA TYPHIMURIUM, Strain/Indicator: TA1535, Metabolic Activation: NONE, Method: PREINCUBATION) was “active; positive” and the mutagenic call (Test System: CHINESE HAMSTER V-79, Strain/Indicator: V-79/6-THIOGUANINE, Metabolic Activation: NONE, Method: FLASK ASSAY) was “active; positive”. The mutagenic call (Test System: CHO/HGPRT, Strain/Indicator: CHO-K1-BH4, Metabolic Activation: NONE, Method: STANDARD PLATE) was “active; positive”.
With `O=c1c(O)c(O)c1=O` the mutagenic call (Test System: AMES SALMONELLA TYPHIMURIUM, Strain/Indicator: TA98, Metabolic Activation: HAMSTER, LIVER, S-9, AROCLOR 1254, Method: STANDARD PLATE) was “inactive; negative”, the mutagenic call [1] was “inactive; negative” and the mutagenic call (Test System: AMES SALMONELLA TYPHIMURIUM, Strain/Indicator: TA98, Metabolic Activation: RAT, LIVER, S-9, AROCLOR 1254, Method: STANDARD PLATE) was “inactive; negative”. The mutagenic call (Test System: AMES SALMONELLA TYPHIMURIUM, Strain/Indicator: TA100, Metabolic Activation: HAMSTER, LIVER, S-9, AROCLOR 1254, Method: STANDARD PLATE) was “inactive; negative”, the mutagenic call [3] was “inactive; negative” and the mutagenic call [5] was “inactive; negative”. The mutagenic call (Test System: AMES SALMONELLA TYPHIMURIUM, Strain/Indicator: TA1535, Metabolic Activation: HAMSTER, LIVER, S-9, AROCLOR 1254, Method: STANDARD PLATE) was “inactive; negative”, the mutagenic call [6] was “inactive; negative” and the mutagenic call (Test System: AMES SALMONELLA TYPHIMURIUM, Strain/Indicator: TA1535, Metabolic Activation: RAT, LIVER, S-9, AROCLOR 1254, Method: STANDARD PLATE) was “inactive; negative”. The mutagenic call (Test System: AMES SALMONELLA TYPHIMURIUM, Strain/Indicator: TA1537, Metabolic Activation: HAMSTER, LIVER, S-9, AROCLOR 1254, Method: STANDARD PLATE) was “inactive; negative”, the mutagenic call [7] was “inactive; negative” and the mutagenic call (Test System: AMES SALMONELLA TYPHIMURIUM, Strain/Indicator: TA1537, Metabolic Activation: RAT, LIVER, S-9, AROCLOR 1254, Method: STANDARD PLATE) was “inactive; negative”. For the same compound, the mutagenic call (Test System: AMES SALMONELLA TYPHIMURIUM, Strain/Indicator: TA1538, Metabolic Activation: HAMSTER, LIVER, S-9, AROCLOR 1254, Method: STANDARD PLATE) was “inactive; negative”, the mutagenic call [8] was “inactive; negative” and the mutagenic call (Test System: AMES SALMONELLA TYPHIMURIUM, Strain/Indicator: TA1538, Metabolic Activation: RAT, LIVER, S-9, AROCLOR 1254, Method: STANDARD PLATE) was “inactive; negative”. The mutagenic call [9] was “inactive; negative. reevaluation of results: negative” and the mutagenic call [10] was “inactive; negative. reevaluation of results: negative”.
In the case of `C=C[Si](C)(C)CCl`, the mutagenic call (Test System: AMES SALMONELLA TYPHIMURIUM, Strain/Indicator: TA98, Metabolic Activation: HAMSTER, LIVER, S-9, AROCLOR 1254 (10%), Method: STANDARD PLATE) is reported as “inactive; negative”, the mutagenic call [1] is reported as “inactive; negative” and the mutagenic call (Test System: AMES SALMONELLA TYPHIMURIUM, Strain/Indicator: TA98, Metabolic Activation: RAT, LIVER, S-9, AROCLOR 1254 (10%), Method: STANDARD PLATE) is reported as “inactive; negative”. The mutagenic call (Test System: AMES SALMONELLA TYPHIMURIUM, Strain/Indicator: TA100, Metabolic Activation: HAMSTER, LIVER, S-9, AROCLOR 1254 (10%), Method: STANDARD PLATE) was “inactive; negative”, the mutagenic call [3] was “inactive; negative” and the mutagenic call (Test System: AMES SALMONELLA TYPHIMURIUM, Strain/Indicator: TA100, Metabolic Activation: RAT, LIVER, S-9, AROCLOR 1254 (10%), Method: STANDARD PLATE) was “inactive; negative”. The mutagenic call (Test System: AMES SALMONELLA TYPHIMURIUM, Strain/Indicator: TA1535, Metabolic Activation: HAMSTER, LIVER, S-9, AROCLOR 1254 (10%), Method: STANDARD PLATE) was “inactive; negative”, the mutagenic call [6] was “inactive; negative” and the mutagenic call (Test System: AMES SALMONELLA TYPHIMURIUM, Strain/Indicator: TA1535, Metabolic Activation: RAT, LIVER, S-9, AROCLOR 1254 (10%), Method: STANDARD PLATE) was “inactive; negative”. The mutagenic call (Test System: AMES SALMONELLA TYPHIMURIUM, Strain/Indicator: TA1537, Metabolic Activation: HAMSTER, LIVER, S-9, AROCLOR 1254 (10%), Method: STANDARD PLATE) was “inactive; negative”, the mutagenic call [7] was “inactive; negative” and the mutagenic call (Test System: AMES SALMONELLA TYPHIMURIUM, Strain/Indicator: TA1537, Metabolic Activation: RAT, LIVER, S-9, AROCLOR 1254 (10%), Method: STANDARD PLATE) was “inactive; negative”. The mutagenic call (Test System: AMES SALMONELLA TYPHIMURIUM, Strain/Indicator: TA1538, Metabolic Activation: HAMSTER, LIVER, S-9, AROCLOR 1254 (10%), Method: STANDARD PLATE) was “inactive; negative”, the mutagenic call [8] was “inactive; negative” and the mutagenic call (Test System: AMES SALMONELLA TYPHIMURIUM, Strain/Indicator: TA1538, Metabolic Activation: RAT, LIVER, S-9, AROCLOR 1254 (10%), Method: STANDARD PLATE) was “inactive; negative”. The mutagenic call [9] was “inactive; negative. reevaluation of results: inconclusive” and the mutagenic call [10] was “inactive; negative. reevaluation of results: negative”.
`N=C(N)c1ccc2c(N)c(C(=N)N)[nH]c2c1` was tested, and the mutagenic call [1] was “inactive; negative”, the mutagenic call (Test System: AMES SALMONELLA TYPHIMURIUM, Strain/Indicator: TA98, Metabolic Activation: RAT, LIVER, S-9, PHENOBARBITAL, Method: STANDARD PLATE) was “inactive; negative” and the mutagenic call [3] was “inactive; negative”. For the same compound, the mutagenic call (Test System: AMES SALMONELLA TYPHIMURIUM, Strain/Indicator: TA100, Metabolic Activation: RAT, LIVER, S-9, PHENOBARBITAL, Method: STANDARD PLATE) was “inactive; negative”.
With `[Cl][Sn]([Cl])([Cl])[Cl]` the mutagenic call (Test System: AMES SALMONELLA TYPHIMURIUM, Strain/Indicator: TA98, Metabolic Activation: NONE, Method: SUSPENSION/PLATE) was “inactive; negative” and the mutagenic call (Test System: AMES SALMONELLA TYPHIMURIUM, Strain/Indicator: TA100, Metabolic Activation: NONE, Method: SUSPENSION/PLATE) was “inactive; negative”.
For `Cc1cc(C)c(N)c(C)c1N`, the mutagenic call (Test System: AMES SALMONELLA TYPHIMURIUM, Strain/Indicator: TA97, Metabolic Activation: NONE, Method: STANDARD PLATE) was “inactive; negative”, the mutagenic call (Test System: AMES SALMONELLA TYPHIMURIUM, Strain/Indicator: TA97, Metabolic Activation: RAT, LIVER, S-9, Method: STANDARD PLATE) was “active; positive” and the mutagenic call [1] was “inactive; negative”. For the same compound, the mutagenic call [2] was “active; positive”, the mutagenic call [3] was “active; positive” and the mutagenic call [4] was “active; positive”. For the same compound, the mutagenic call [6] was “active; positive” and the mutagenic call (Test System: AMES SALMONELLA TYPHIMURIUM, Strain/Indicator: TA1535, Metabolic Activation: RAT, LIVER, S-9, Method: STANDARD PLATE) was “active; positive”.
`Fc1ccc2c3c(cccc13)-c1cc3ccccc3cc1-2` was tested, and the mutagenic call [5] was “active; positive”.
